Results: US10851072B2 (THE REGENTS OF THE UNIVERSITY OF MICHIGAN, priority 2018, dated 2020)
pIC50: −log10 of the molar value.

System: not listed separately
Test: MLM metabolic stability (half-life)
Assay type: in vitro ADME, mice
Conditions: mouse, mouse liver microsomes (MLM), 1 μM compound, beta-NADPH 1 mM, 60 min, LC-MS, read-out: MLM T1/2
Description: Compounds (1 μM) were incubated with MLM in the presence of beta-NADPH (1 mM) for 60 min. The remaining drug concentration was measured using LC-MS using multiple reaction monitoring (MRM) mode. Both initial and overall disappearance rate and half-lives were calculated. […] Verapamil was run as a positive control in every assay; its half-life could not exceed 4 min or the assay was considered invalid.

Structure (SMILES)	half-life at 1 μM
O=C(O)CCCSc1nnc(-c2ccc(C(F)(F)F)cc2Cl)o1 [Compound A2]	> 1 h
O=C(O)[C@H]1C[C@@H](Sc2nnc(-c3ccc(Cl)cc3Cl)o2)C1 [Compound B2, cis-3-((5-(2,4-Dichlorophenyl)-1,3,4-oxadiazol-2-yl)thio)cyclobutanecarboxylic acid]	> 1 h
O=C(O)CCCSc1nnc(-c2ccc(C3CC3)cc2Cl)o1 [Compound A1, 4-((5-(2-chloro-4-cyclopropylphenyl)-1,3,4-oxadiazol-2-yl)thio)butanoic acid]	0.783 h
O=C(O)CCCSc1nnc(-c2ccc(OC3CC3)cc2Cl)o1 [Compound A8, 4-((5-(2-chloro-4-cyclopropoxyphenyl)-1,3,4-oxadiazol-2-yl)thio)butanoic acid]	> 1 h
O=C(O)CCCSc1nnc(-c2ccc(OCC(F)(F)F)cc2Cl)o1 [Compound A12, 4-((5-(2-chloro-4-(2,2,2-trifluoroethoxy)phenyl)-1,3,4-oxadiazol-2-yl)thio)butanoic acid]	> 1 h

System: C57BL/6J mice
Test: In vivo testing for antifibrotic effects (bleomycin skin injections)
Conditions: skin of bleomycin-injected mice, Masson's trichrome, dermal thickness; A1 3 or 10 mg/kg PO daily, fourteen days; FIG. 2
Description: C57BL/6J mice were ordered from Jackson labs for delivery at 15-16 weeks of age. Mice were preconditioned with supplemental chow for two weeks prior to start of experiment. Mice were randomized by weight into four groups (vehicle, A1 (3 mg/kg), A1 (10 mg/kg), PBS). Each group consisted of two cages with four mice per cage. Drug stock solutions were aliquoted and stored at 4° C. for the duration of the study. Aliquots were warmed to 37° C. and briefly vortexed prior to filling the gavage syringes. Vehicle and A1 groups received daily bleomycin injections (0.1 mL, ID) each afternoon in a defined area of shaved dorsal skin. PBS control group received daily injections (0.1 mL, ID) of PBS in the afternoon. Mice were anesthetized with ketamine/xylazine for ID injections. […]
Fixed skin was paraffin embedded and sectioned at the University of Michigan Comprehensive Cancer Center Histology Core. […] Stained sections were analyzed with an Olympus BX51\DP72 microscope. Dermal thickness was determined by measuring the maximal distance between the epidermal-dermal junction and the dermal-subcutaneous fat junction. […]
Skin sections were weighed and hydrolyzed in 6M HCl at 120° C. for three hours. […] Absorbance was measured at 560 nm using a Synergy HT microplate reader (BioTek Instruments). […]

Structure (SMILES)	collagen thickness
O=C(O)CCCSc1nnc(-c2ccc(C3CC3)cc2Cl)o1 [Compound A1, 4-((5-(2-chloro-4-cyclopropylphenyl)-1,3,4-oxadiazol-2-yl)thio)butanoic acid]	reduction

Same assay, conditions: skin of bleomycin-injected mice; A1 3 or 10 mg/kg PO daily, fourteen days; FIG. 1

Structure (SMILES)	hydroxyproline content
O=C(O)CCCSc1nnc(-c2ccc(C3CC3)cc2Cl)o1 [Compound A1, 4-((5-(2-chloro-4-cyclopropylphenyl)-1,3,4-oxadiazol-2-yl)thio)butanoic acid]	reduction

System: serum response element (SRE)
Test: SRE.L-Luciferase Reporter Assay
Assay type: cell-based
Conditions: Homo sapiens; Table C; HEK-293T cells co-transfected with Gα12Q231L, SRE.L and pRL-TK plasmids; 19 hrs treatment
Description: Biological activity of the compounds disclosed herein were assessed in the SRE.L luciferase reporter assay. HEK-293T cells were co-transfected with 2 ng of the Gα12Q231L expression plasmid along with 50 ng of the SRE.L and 7 ng of the pRL-TK luciferase reporter plasmids, as described in the Materials and Methods section. Cells were treated with 0 (vehicle, DMSO alone), 1, 3, 10, 30, and 100 μM of a compound disclosed herein for 19 hrs after transfection before lysis. Luminescence was determined as described in the Materials and Methods section. Just before cell lysis, the viability of the cells was measured using the WST-1 cell proliferation reagent as described in the Materials and Methods section. Data are expressed as percentage of inhibition (DMSO alone=0%). The experiments were performed three separate times to achieve n=3 in triplicate.

Structure (SMILES)	pIC50
CC(C)(F)c1ccc(-c2nnc(SCCCC(=O)O)o2)cc1 [Compound A22]	8.02
O=C(O)CCCSc1nnc(-c2ccc(OC(F)(F)F)cc2)o1 [Compound A19, 4-((5-(4-(trifluoromethoxy)phenyl)-1,3,4-oxadiazol-2-yl)thio)butanoic acid]	7.11
O=C(O)CCCSc1nnc(-c2ccc(Cl)cc2O)o1 [Compound C, 4-((5-(4-chloro-2-hydroxyphenyl)-1,3,4-oxadiazol-2-yl)thio)butanoic acid]	10.70
O=C(O)CCCSc1nnc(-c2ccc(C(F)F)cc2)o1 [Compound A18, 4-((5-(4-(difluoromethyl)phenyl)-1,3,4-oxadiazol-2-yl)thio)butanoic acid]	6.80
O=C(O)CCCSc1nnc(-c2ccc(OCC(F)(F)F)cc2)o1 [Compound A17, 4-((5-(4-(2,2,2-trifluoroethoxy)phenyl)-1,3,4-oxadiazol-2-yl)thio)butanoic acid]	6.62
O=C(O)CCCSc1nnc(-c2ccccc2F)o1 [Compound A6, 4-((5-(2-fluorophenyl)-1,3,4-oxadiazol-2-yl)thio)butanoic acid]	6.68
O=C(O)CCCSc1nnc(-c2cccc(C(F)(F)F)c2Cl)o1 [Compound A20, 4-((5-(2-chloro-3-(trifluoromethyl)phenyl)-1,3,4-oxadiazol-2-yl)thio)butanoic acid]	6.48
O=C(O)CCCSc1nnc(-c2ccc(OCC(F)(F)F)cc2Cl)o1 [Compound A12, 4-((5-(2-chloro-4-(2,2,2-trifluoroethoxy)phenyl)-1,3,4-oxadiazol-2-yl)thio)butanoic acid]	9.10
O=C(O)CCCSc1nnc(-c2ccc(OC(F)F)cc2)o1 [Compound A23, 4-((5-(4-(difluoromethoxy)phenyl)-1,3,4-oxadiazol-2-yl)thio)butanoic acid]	6.89
O=C(O)CCCSc1nnc(-c2ccc(Cl)cc2Cl)o1 [CCG-232120, reference compound]	8.74
O=C(O)CCCSc1nnc(-c2ccc(OC(F)(F)F)cc2Cl)o1 [Compound A14, 4-((5-(2-chloro-4-(trifluoromethoxy)phenyl)-1,3,4-oxadiazol-2-yl)thio)butanoic acid]	8.44
O=C(O)CCCSc1nnc(-c2ccccc2C(F)(F)F)o1 [Compound A5, 4-((5-(2-(trifluoromethyl)phenyl)-1,3,4-oxadiazol-2-yl)thio)butanoic acid]	5.21

Same assay, conditions: Homo sapiens; Table D; HEK-293T cells co-transfected with Gα12Q231L, SRE.L and pRL-TK plasmids; 19 hrs treatment

Structure (SMILES)	pIC50
CC1(COc2ccc(-c3nnc(SCCCC(=O)O)o3)c(Cl)c2)COC1 [Compound A16, 4-((5-(2-chloro-4-((3-methyloxetan-3-yl)methoxy)phenyl)-1,3,4-oxadiazol-2-yl)thio)butanoic acid]	7.38
O=C(O)CCCSc1nnc(-c2ccc(C3CC3)cc2Cl)o1 [Compound A1, 4-((5-(2-chloro-4-cyclopropylphenyl)-1,3,4-oxadiazol-2-yl)thio)butanoic acid]	11.92
O=C(O)CCCSc1nnc(-c2ccc(OCC3COC3)cc2Cl)o1 [Compound A15, 4-((5-(2-chloro-4-(oxetan-3-ylmethoxy)phenyl)-1,3,4-oxadiazol-2-yl)thio)butanoic acid]	7.46
O=C(O)CCCSc1nnc(-c2ccc(OCC3CC3)cc2Cl)o1 [Compound A7, 4-((5-(2-chloro-4-(cyclopropylmethoxy)phenyl)-1,3,4-oxadiazol-2-yl)thio)butanoic acid]	10.70
O=C(O)CCCSc1nnc(-c2cc(C3CC3)ccc2Cl)o1 [Compound A4, 4-((5-(2-chloro-5-cyclopropylphenyl)-1,3,4-oxadiazol-2-yl)thio)butanoic acid]	7.96
COC(=O)CCCSc1nnc(-c2ccc(C3CC3)cc2Cl)o1 [Compound A10, Methyl 4-((5-(2-chloro-4-cyclopropylphenyl)-1,3,4-oxadiazol-2-yl)thio)butanoate]	8.52

Same assay, conditions: Homo sapiens; Table E; HEK-293T cells co-transfected with Gα12Q231L, SRE.L and pRL-TK plasmids; 19 hrs treatment

Structure (SMILES)	pIC50
O=C(O)[C@@H]1CC[C@H](Sc2nnc(-c3ccc(Cl)cc3Cl)o2)C1 (relative stereo) [Compound B7, cis-3-((5-(2,4-dichlorophenyl)-1,3,4-oxadiazol-2-yl)thio)cyclopentanecarboxylic acid]	7.82
O=C(O)[C@H]1CC[C@H](Sc2nnc(-c3ccc(Cl)cc3Cl)o2)CC1 [Compound B10, trans-4-((5-(2,4-dichlorophenyl)-1,3,4-oxadiazol-2-yl)thio)cyclohexanecarboxylic acid]	< 4.00
O=C(O)[C@H]1C[C@H](Sc2nnc(-c3ccc(C4CC4)cc3Cl)o2)C1 [Compound B4, trans-3-((5-(2-chloro-4-cyclopropylphenyl)-1,3,4-oxadiazol-2-yl)thio)cyclobutanecarboxylic acid]	8.59
O=C(O)[C@H]1C[C@H](Sc2nnc(-c3ccc(Cl)cc3Cl)o2)C1 [Compound B1, trans-3-((5-(2,4-dichlorophenyl)-1,3,4-oxadiazol-2-yl)thio)cyclobutanecarboxylic acid]	6.85
O=C(O)[C@H]1C[C@@H](Sc2nnc(-c3ccc(Cl)cc3Cl)o2)C1 [Compound B2, cis-3-((5-(2,4-Dichlorophenyl)-1,3,4-oxadiazol-2-yl)thio)cyclobutanecarboxylic acid]	8.31
O=C(O)[C@H]1CC[C@H](Sc2nnc(-c3ccc(Cl)cc3Cl)o2)C1 (relative stereo) [Compound B8, trans-3-((5-(2,4-dichlorophenyl)-1,3,4-oxadiazol-2-yl)thio)cyclopentanecarboxylic acid]	< 4.00
O=C(O)[C@H]1C[C@@H](Sc2nnc(-c3ccc(C4CC4)cc3Cl)o2)C1 [Compound B3, cis-3-((5-(2-chloro-4-cyclopropylphenyl)-1,3,4-oxadiazol-2-yl)thio)cyclobutanecarboxylic acid]	9.34
O=C(O)[C@H]1CC[C@@H](Sc2nnc(-c3ccc(Cl)cc3Cl)o2)CC1 [Compound B9, cis-4-((5-(2,4-dichlorophenyl)-1,3,4-oxadiazol-2-yl)thio)cyclohexanecarboxylic acid]	< 4.00
O=C(O)[C@H]1C[C@@H](Sc2nnc(-c3ccc(C(F)(F)F)cc3Cl)o2)C1 [Compound B5, cis-3-((5-(2-chloro-4-(trifluoromethyl)phenyl)-1,3,4-oxadiazol-2-yl)thio)cyclobutanecarboxylic acid]	7.38
O=C(O)[C@H]1C[C@H](Sc2nnc(-c3ccc(C(F)(F)F)cc3Cl)o2)C1 [Compound B6, trans-3-((5-(2-chloro-4-(trifluoromethyl)phenyl)-1,3,4-oxadiazol-2-yl)thio)cyclobutanecarboxylic acid]	6.00
